Reference: ChEMBL document CHEMBL4483862, “Open-source discovery of chemical leads for next-generation chemoprotective antimalarials” (2018)

Test system: Plasmodium berghei
Assay: Luciferase/luciferin-expressing antifolate-resistant parasites were used to infect a culture of HepG2 cells that were pre-incubated with compounds. Infected hepatocytes emit light due to the luciferase reaction. Assay results are presented as the percent inhibition of light emission compared to control. […]
Assay type: functional
Conditions: sporozoite; for IC90: read-out: LUCIFERASE INFECTION ASSAY - IC90
[1] = read-out: LUCIFERASE INFECTION ASSAY - IC50

Row | Compound | IC90 | IC50 [1] | further results
1 | O=C(Nc1ccc(Cl)c(Cl)c1)Nc1c(-c2ccccc2)nc2ccccn12 | 4.52 µM | – | IC50 (HEPG2TOX_HILL_SLOPE 7.35, HEPG2TOX_R_SQUARED 0.457, PBLUC_HILL_SLOPE 10, PBLUC_R_SQUARED 0.727, read-out: LUCIFERASE INFECTION ASSAY - IC50): 3.63 µM
2 | CN(C)c1ccc(-c2cnc3cnc(-c4ccc(CNc5ccccc5)cc4)cn23)cc1 | > 7.87 µM | – | IC50 (PBLUC_HILL_SLOPE 1.8, PBLUC_R_SQUARED 0.529, read-out: LUCIFERASE INFECTION ASSAY - IC50): 4.22 µM
3 | CNc1nc2cnc(Nc3cccc(OC(F)(F)F)c3)cc2n1-c1cc(OC)c(OC)c(OC)c1 | > 10 µM | – | IC50 (PBLUC_HILL_SLOPE 2.6, PBLUC_R_SQUARED 0.253, read-out: LUCIFERASE INFECTION ASSAY - IC50): 6.55 µM
4 | CN(C)CCNc1cc(-c2ccco2)nc2ccccc12 | 9.18 µM | – | IC50 (HEPG2TOX_HILL_SLOPE 2.93, HEPG2TOX_R_SQUARED 0.885, PBLUC_HILL_SLOPE 3.51, PBLUC_R_SQUARED 0.62, read-out: LUCIFERASE INFECTION ASSAY - IC50): 4.91 µM
5 | Cc1nc(Sc2nnc3ccccn23)c2c3c(sc2n1)CCCC3 | 3.52 µM | 2.94 µM | –
6 | Cc1ccc(-n2nc(C)c3c(C(=O)N4CCC(C)CC4)cc(-c4ccncc4)nc32)cc1 | > 10 µM | > 10 µM | –
7 | CC(Sc1nc2ccccc2c(=O)n1CCCN1CCOCC1)c1ccc(F)cc1 (centres undefined) | > 10 µM | > 10 µM | –
8 | Cc1c(C)n(CCCO)c2ncn3nc(-c4ccc(N(C)C)cc4)nc3c12 | 3.79 µM | – | IC50 (FFLUC_HILL_SLOPE 0.464, FFLUC_R_SQUARED 0.882, PBLUC_HILL_SLOPE 0.457, PBLUC_R_SQUARED 0.781, read-out: LUCIFERASE INFECTION ASSAY - IC50): 0.0311 µM
9 | CC(C)(C)c1ccc(C(=O)Nc2ccc(Oc3ccc(Cl)cc3)cc2)cc1 | > 8.69 µM | > 8.69 µM | –
10 | Cc1ccc(NS(=O)(=O)c2ccc(C(=O)Nc3ncccc3O)cc2)cc1C | 1.88 µM | – | IC50 (FFLUC_HILL_SLOPE 12.3, FFLUC_R_SQUARED 0.189, HEPG2TOX_HILL_SLOPE 11.2, HEPG2TOX_R_SQUARED 0.187, PBLUC_HILL_SLOPE 1.78, PBLUC_R_SQUARED 0.764, read-out: LUCIFERASE INFECTION ASSAY - IC50): 0.549 µM
11 | COc1cccc(C(=O)c2c(-c3ccco3)c3c4n(c(-c5ccc(Cl)cc5)cn24)CCCC3)c1 | > 10 µM | – | IC50 (PBLUC_HILL_SLOPE 14.1, PBLUC_R_SQUARED 0.641, read-out: LUCIFERASE INFECTION ASSAY - IC50): 9.18 µM
12 | CCOc1ccc(S(=O)(=O)Nc2cc(Sc3ccc(C)cc3)c(O)c3ccccc23)cc1 | > 10 µM | – | IC50 (FFLUC_HILL_SLOPE 11.6, FFLUC_R_SQUARED 0.0239, HEPG2TOX_HILL_SLOPE 1.78, HEPG2TOX_R_SQUARED 0.0588, PBLUC_HILL_SLOPE 15.2, PBLUC_R_SQUARED 0.324, read-out: LUCIFERASE INFECTION ASSAY - IC50): 9.98 µM
13 | CCN(Cc1ccccc1)S(=O)(=O)c1cc(C(=O)N2CCc3ccccc3C2)ccc1OC | > 10 µM | – | IC50 (PBLUC_HILL_SLOPE 15.3, PBLUC_R_SQUARED 0.425, read-out: LUCIFERASE INFECTION ASSAY - IC50): 9.68 µM
14 | Cc1cccc(NC(=O)N2CCC3(CC2)OCc2cc(-c4ccc(OC(F)(F)F)cc4)ccc2O3)c1 | > 6.62 µM | > 6.62 µM | –
15 | COc1ccc2nc(C)cc(N3CCc4c(sc(N)c4C#N)C3)c2c1 | > 10 µM | > 10 µM | –
16 | O=C(Nc1cccc(Cl)c1)Nc1nc2ccccc2[nH]1 | > 10 µM | > 10 µM | –
17 | CC(C)c1ccc(-c2csc(NC(=O)CCn3cnc([N+](=O)[O-])c3)n2)c(C(C)C)c1 | 8.21 µM | – | IC50 (FFLUC_HILL_SLOPE 11.6, FFLUC_R_SQUARED 0.59, HEPG2TOX_HILL_SLOPE 11.1, HEPG2TOX_R_SQUARED 0.951, PBLUC_HILL_SLOPE 3.89, PBLUC_R_SQUARED 0.436, read-out: LUCIFERASE INFECTION ASSAY - IC50): 4.67 µM
18 | CCCNC(=O)CN1CCN(c2nc(-c3cccs3)nc3sc(C)c(C)c23)CC1 | > 10 µM | – | IC50 (PBLUC_HILL_SLOPE 12.5, PBLUC_R_SQUARED 0.18, read-out: LUCIFERASE INFECTION ASSAY - IC50): 9.45 µM
19 | COc1cc(-c2ccc3ncc(-c4cccc(CO)c4)n3n2)cc(OC)c1OC | 2.51 µM | – | IC50 (HEPG2TOX_HILL_SLOPE 2.11, HEPG2TOX_R_SQUARED 0.989, PBLUC_HILL_SLOPE 5.29, PBLUC_R_SQUARED 0.606, read-out: LUCIFERASE INFECTION ASSAY - IC50): 1.66 µM
20 | COc1ccc(-c2nc3ccccc3n2-c2cc(-c3ccccc3)nn2-c2ccccc2)cc1 | 8.43 µM | – | IC50 (FFLUC_HILL_SLOPE 12.7, FFLUC_R_SQUARED 0.403, HEPG2TOX_HILL_SLOPE 1.43, HEPG2TOX_R_SQUARED 0.399, PBLUC_HILL_SLOPE 4.08, PBLUC_R_SQUARED 0.666, read-out: LUCIFERASE INFECTION ASSAY - IC50): 4.92 µM
21 | CCCC/C=C/c1cnc2ccc(NC(CC)CO)nn12 (centres undefined) | > 11.4 µM | – | IC50 (PBLUC_HILL_SLOPE 1.69, PBLUC_R_SQUARED 0.254, read-out: LUCIFERASE INFECTION ASSAY - IC50): 7.08 µM

Row | Compound | IC90 | IC50 [1] | further results
22 | Cc1cc(C)c(S(=O)(=O)N(Cc2cccc3ccccc23)c2c(C)n(C)n(-c3ccccc3)c2=O)c(C)c1 | 9.71 µM | – | IC50 (HEPG2TOX_HILL_SLOPE 7.62, HEPG2TOX_R_SQUARED 0.586, PBLUC_HILL_SLOPE 20.2, PBLUC_R_SQUARED 0.47, read-out: LUCIFERASE INFECTION ASSAY - IC50): 8.71 µM
23 | Cc1[nH]c2ccccc2c1C(=O)C(=O)Nc1ccc(N2CCCCC2)nc1 | 9.82 µM | – | IC50 (PBLUC_HILL_SLOPE 5.45, PBLUC_R_SQUARED 0.664, read-out: LUCIFERASE INFECTION ASSAY - IC50): 6.56 µM
24 | Cc1ccc(S(=O)(=O)Nc2ccc(Nc3nccn4c(-c5ccc(F)cc5)cnc34)cc2)cc1 | 4.49 µM | – | IC50 (PBLUC_HILL_SLOPE 1.86, PBLUC_R_SQUARED 0.706, read-out: LUCIFERASE INFECTION ASSAY - IC50): 1.37 µM
25 | c1ccc(CN2CCc3nc(NCc4ccc(Oc5ccccc5)cc4)ncc3C2)cc1 | > 7.81 µM | > 7.81 µM | –
26 | Cc1c(OCC(=O)Nc2ccccc2)ccc2c1OC(C)(C)C=C2 | 0.79 µM | – | IC50 (FFLUC_HILL_SLOPE 0.847, FFLUC_R_SQUARED 0.632, PBLUC_HILL_SLOPE 1.69, PBLUC_R_SQUARED 0.702, read-out: LUCIFERASE INFECTION ASSAY - IC50): 0.216 µM
27 | Cc1ccc2nc(-c3ccc(NC(=S)NCC(C)(C)CN(C)C)cc3)sc2c1 | > 10 µM | – | IC50 (PBLUC_HILL_SLOPE 12.9, PBLUC_R_SQUARED 0.101, read-out: LUCIFERASE INFECTION ASSAY - IC50): 9.07 µM
28 | COc1ccc(-n2ncc(N3CCC(=O)CC3)c(Cl)c2=O)cc1 | > 9.89 µM | > 9.89 µM | –
29 | CCOC(=O)c1c(C)[nH]c(C(=O)Nc2cccc(C)n2)c1C | > 10 µM | – | IC50 (PBLUC_HILL_SLOPE 0.344, PBLUC_R_SQUARED 0.589, read-out: LUCIFERASE INFECTION ASSAY - IC50): 0.0971 µM
30 | COc1ccc(N2C(=O)C=CC2=O)cc1 | > 16.2 µM | – | IC50 (FFLUC_HILL_SLOPE 16.4, FFLUC_R_SQUARED 0.242, read-out: LUCIFERASE INFECTION ASSAY - IC50): > 16.2 µM
31 | O=c1[nH][nH]c(-c2ccccc2)c1C=NCc1cccc(C(F)(F)F)c1 | > 9.56 µM | – | IC50 (HEPG2TOX_HILL_SLOPE 6.09, HEPG2TOX_R_SQUARED 0.916, PBLUC_HILL_SLOPE 3.54, PBLUC_R_SQUARED 0.303, read-out: LUCIFERASE INFECTION ASSAY - IC50): 7.61 µM
32 | COc1ccc(C(CNc2nc(-c3cccnc3)nc3ccccc23)c2c[nH]c3ccccc23)cc1 (centres undefined) | > 10 µM | – | IC50 (PBLUC_HILL_SLOPE 8.92, PBLUC_R_SQUARED 0.072, read-out: LUCIFERASE INFECTION ASSAY - IC50): > 10 µM
33 | C/C(=N\NC(=O)Nc1ccc(Cl)cc1)c1ccc2c(c1)OCCO2 | 9.81 µM | – | IC50 (HEPG2TOX_HILL_SLOPE 11.1, 2.08, HEPG2TOX_R_SQUARED 0.732, 0.913, PBLUC_HILL_SLOPE 3.29, PBLUC_R_SQUARED 0.645, read-out: LUCIFERASE INFECTION ASSAY - IC50): 5.03 µM
34 | Brc1ccc(C2C(c3nc4ccccc4[nH]3)=C(c3ccccc3)N=C(c3ccccc3)C2c2nc3ccccc3[nH]2)cc1 (centres undefined) | > 10 µM | > 10 µM | –
35 | CC(C)n1ncc2c(C(=O)Nc3ccn(C)n3)cc(-c3cccs3)nc21 | > 10 µM | > 10 µM | –
36 | Cc1noc(C)c1CCC(=O)Nc1nc2cc(C(F)(F)F)ccc2n1Cc1ccco1 | 3.57 µM | – | IC50 (HEPG2TOX_HILL_SLOPE 1.36, HEPG2TOX_R_SQUARED 0.789, PBLUC_HILL_SLOPE 10.4, PBLUC_R_SQUARED 0.861, read-out: LUCIFERASE INFECTION ASSAY - IC50): 2.89 µM
37 | O=C(Nc1ccc(C(OC(=O)c2ccccc2)(C(F)(F)F)C(F)(F)F)cc1)c1ccccc1 | > 10 µM | > 10 µM | –
38 | CCn1nc(C)c(CN2CCC3(CC2)C(=O)N(Cc2ccccc2)C(=O)N3CCc2ccccc2)c1C | > 6.6 µM | 2.92 µM | –
39 | c1ccc(-c2ccc(C3=Nc4ccccc4SC(c4ccco4)C3)cc2)cc1 (centres undefined) | 4.75 µM | – | IC50 (FFLUC_HILL_SLOPE 14.5, FFLUC_R_SQUARED 0.557, PBLUC_HILL_SLOPE 1.32, PBLUC_R_SQUARED 0.568, read-out: LUCIFERASE INFECTION ASSAY - IC50): 0.903 µM
40 | CNCCCNCc1cccc(OC)c1OCc1ccc(Cl)cc1 | > 9.46 µM | – | IC50 (PBLUC_HILL_SLOPE 9.3, PBLUC_R_SQUARED 0.597, read-out: LUCIFERASE INFECTION ASSAY - IC50): 8.76 µM
41 | Cn1c(N)c(C(=O)COC(=O)c2oc3ccccc3c2CSC2CCCCC2)c(=O)n(C)c1=O | > 10 µM | > 10 µM | –
42 | CC(C)=CC(=O)Nc1scc(-c2ccccc2)c1C(=O)OCC(=O)Nc1cc(C)on1 | > 10 µM | > 10 µM | –
